According to the supplement of paper PMC8882468:

tested on: HCI-015 (organoid from a triple-negative breast cancer xenograft); test: CTG-3D luminescence at 96 h relative to day-0 seeding control (ratio to day 0); higher = more growth / less cytotoxicity; PDxO 3D drug screen, 96 h, CTG-3D normalised to day-0 seeding control.; details: 10 µM; days in culture: 191

Row | Compound | CTG-3D luminescence at 96 h
1 | COc1cc2c(Oc3ccc4[nH]c(C)cc4c3F)ncnc2cc1OCCCN1CCCC1 [cediranib] | 0.0236
2 | CC(C)n1nc(-c2ccc3oc(N)nc3c2)c2c(N)ncnc21 [sapanisertib] | 0.363
3 | Cc1cc(Nc2ncnc3ccc(NC4=NC(C)(C)CO4)cc23)ccc1Oc1ccn2ncnc2c1 [tucatinib] | 0.759
4 | C[C@H](NC(=O)CCC(F)(F)F)C(=O)N[C@@H]1C(=O)N(CCO)c2ncccc2-c2ccccc21 [crenigacestat] | 0.657
5 | C[C@]12CC[C@@H]3c4ccc(O)cc4C[C@@H](CCCCCCCCC[S+]([O-])CCCC(F)(F)C(F)(F)F)[C@H]3[C@@H]1CC[C@@H]2O (some centres not stated) [fulvestrant] | 1.23
6 | O=C(c1ccc(F)c(F)c1Nc1ccc(I)cc1F)N1CC(O)([C@@H]2CCCCN2)C1 [cobimetinib] | 0.894
7 | O=C(/C=C/c1cccnc1)NCCCCC1CCN(C(=O)c2ccccc2)CC1 [FK866] | 0.167
8 | CS(=O)(=O)c1ccc(C(=O)Nc2ccc(Cl)c(-c3ccccn3)c2)c(Cl)c1 [vismodegib] | 1.15
9 | C=CCn1c(=O)c2cnc(Nc3ccc(N4CCN(C)CC4)cc3)nc2n1-c1cccc(C(C)(C)O)n1 [adavosertib] | 0.246

same assay, conditions: 10 µM; days in culture: 218

Row | Compound | CTG-3D luminescence at 96 h
10 | COc1cc2c(Oc3ccc4[nH]c(C)cc4c3F)ncnc2cc1OCCCN1CCCC1 [cediranib] | 0.0308
11 | CC(C)n1nc(-c2ccc3oc(N)nc3c2)c2c(N)ncnc21 [sapanisertib] | 0.511
12 | Cc1cc(Nc2ncnc3ccc(NC4=NC(C)(C)CO4)cc23)ccc1Oc1ccn2ncnc2c1 [tucatinib] | 1.64
13 | C[C@H](NC(=O)CCC(F)(F)F)C(=O)N[C@@H]1C(=O)N(CCO)c2ncccc2-c2ccccc21 [crenigacestat] | 0.533
14 | C[C@]12CC[C@@H]3c4ccc(O)cc4C[C@@H](CCCCCCCCC[S+]([O-])CCCC(F)(F)C(F)(F)F)[C@H]3[C@@H]1CC[C@@H]2O (some centres not stated) [fulvestrant] | 2.1
15 | O=C(c1ccc(F)c(F)c1Nc1ccc(I)cc1F)N1CC(O)([C@@H]2CCCCN2)C1 [cobimetinib] | 1.12
16 | O=C(/C=C/c1cccnc1)NCCCCC1CCN(C(=O)c2ccccc2)CC1 [FK866] | 0.133
17 | CS(=O)(=O)c1ccc(C(=O)Nc2ccc(Cl)c(-c3ccccn3)c2)c(Cl)c1 [vismodegib] | 1.61
18 | C=CCn1c(=O)c2cnc(Nc3ccc(N4CCN(C)CC4)cc3)nc2n1-c1cccc(C(C)(C)O)n1 [adavosertib] | 0.252

same assay, conditions: 100 µM; days in culture: 172

Row | Compound | CTG-3D luminescence at 96 h
19 | COc1cc2c(Oc3ccc4[nH]c(C)cc4c3F)ncnc2cc1OCCCN1CCCC1 [cediranib] | -0.0013
20 | CC(C)n1nc(-c2ccc3oc(N)nc3c2)c2c(N)ncnc21 [sapanisertib] | 0.204
21 | Cc1cc(Nc2ncnc3ccc(NC4=NC(C)(C)CO4)cc23)ccc1Oc1ccn2ncnc2c1 [tucatinib] | 0.0569
22 | C[C@H](NC(=O)CCC(F)(F)F)C(=O)N[C@@H]1C(=O)N(CCO)c2ncccc2-c2ccccc21 [crenigacestat] | 1.03
23 | C[C@]12CC[C@@H]3c4ccc(O)cc4C[C@@H](CCCCCCCCC[S+]([O-])CCCC(F)(F)C(F)(F)F)[C@H]3[C@@H]1CC[C@@H]2O (some centres not stated) [fulvestrant] | 1.39
24 | O=C(c1ccc(F)c(F)c1Nc1ccc(I)cc1F)N1CC(O)([C@@H]2CCCCN2)C1 [cobimetinib] | 0.00672
25 | O=C(/C=C/c1cccnc1)NCCCCC1CCN(C(=O)c2ccccc2)CC1 [FK866] | 0.29
26 | CS(=O)(=O)c1ccc(C(=O)Nc2ccc(Cl)c(-c3ccccn3)c2)c(Cl)c1 [vismodegib] | 0.214
27 | C=CCn1c(=O)c2cnc(Nc3ccc(N4CCN(C)CC4)cc3)nc2n1-c1cccc(C(C)(C)O)n1 [adavosertib] | 0.139

same assay, conditions: 100 µM; days in culture: 191

Row | Compound | CTG-3D luminescence at 96 h
28 | COc1cc2c(Oc3ccc4[nH]c(C)cc4c3F)ncnc2cc1OCCCN1CCCC1 [cediranib] | -0.00165
29 | CC(C)n1nc(-c2ccc3oc(N)nc3c2)c2c(N)ncnc21 [sapanisertib] | 0.165
30 | Cc1cc(Nc2ncnc3ccc(NC4=NC(C)(C)CO4)cc23)ccc1Oc1ccn2ncnc2c1 [tucatinib] | 0.0182
31 | C[C@H](NC(=O)CCC(F)(F)F)C(=O)N[C@@H]1C(=O)N(CCO)c2ncccc2-c2ccccc21 [crenigacestat] | 0.695
32 | C[C@]12CC[C@@H]3c4ccc(O)cc4C[C@@H](CCCCCCCCC[S+]([O-])CCCC(F)(F)C(F)(F)F)[C@H]3[C@@H]1CC[C@@H]2O (some centres not stated) [fulvestrant] | 1.35
33 | O=C(c1ccc(F)c(F)c1Nc1ccc(I)cc1F)N1CC(O)([C@@H]2CCCCN2)C1 [cobimetinib] | 0.0092
34 | O=C(/C=C/c1cccnc1)NCCCCC1CCN(C(=O)c2ccccc2)CC1 [FK866] | 0.215
35 | CS(=O)(=O)c1ccc(C(=O)Nc2ccc(Cl)c(-c3ccccn3)c2)c(Cl)c1 [vismodegib] | 0.207
36 | C=CCn1c(=O)c2cnc(Nc3ccc(N4CCN(C)CC4)cc3)nc2n1-c1cccc(C(C)(C)O)n1 [adavosertib] | 0.0546

same assay, conditions: 100 µM; days in culture: 218

Row | Compound | CTG-3D luminescence at 96 h
37 | COc1cc2c(Oc3ccc4[nH]c(C)cc4c3F)ncnc2cc1OCCCN1CCCC1 [cediranib] | -0.00209
38 | CC(C)n1nc(-c2ccc3oc(N)nc3c2)c2c(N)ncnc21 [sapanisertib] | 0.156
39 | Cc1cc(Nc2ncnc3ccc(NC4=NC(C)(C)CO4)cc23)ccc1Oc1ccn2ncnc2c1 [tucatinib] | 0.0854
40 | C[C@H](NC(=O)CCC(F)(F)F)C(=O)N[C@@H]1C(=O)N(CCO)c2ncccc2-c2ccccc21 [crenigacestat] | 0.827
41 | C[C@]12CC[C@@H]3c4ccc(O)cc4C[C@@H](CCCCCCCCC[S+]([O-])CCCC(F)(F)C(F)(F)F)[C@H]3[C@@H]1CC[C@@H]2O (some centres not stated) [fulvestrant] | 1.76
42 | O=C(c1ccc(F)c(F)c1Nc1ccc(I)cc1F)N1CC(O)([C@@H]2CCCCN2)C1 [cobimetinib] | 0.00858
43 | O=C(/C=C/c1cccnc1)NCCCCC1CCN(C(=O)c2ccccc2)CC1 [FK866] | 0.158
44 | CS(=O)(=O)c1ccc(C(=O)Nc2ccc(Cl)c(-c3ccccn3)c2)c(Cl)c1 [vismodegib] | -0.148
45 | C=CCn1c(=O)c2cnc(Nc3ccc(N4CCN(C)CC4)cc3)nc2n1-c1cccc(C(C)(C)O)n1 [adavosertib] | 0.0554

same assay, conditions: 625 fM; days in culture: 172

Row | Compound | CTG-3D luminescence at 96 h
46 | COc1cc2c(Oc3ccc4[nH]c(C)cc4c3F)ncnc2cc1OCCCN1CCCC1 [cediranib] | 2.51
47 | CC(C)n1nc(-c2ccc3oc(N)nc3c2)c2c(N)ncnc21 [sapanisertib] | 2.17
48 | Cc1cc(Nc2ncnc3ccc(NC4=NC(C)(C)CO4)cc23)ccc1Oc1ccn2ncnc2c1 [tucatinib] | 2.67
49 | C[C@H](NC(=O)CCC(F)(F)F)C(=O)N[C@@H]1C(=O)N(CCO)c2ncccc2-c2ccccc21 [crenigacestat] | 2.13
50 | C[C@]12CC[C@@H]3c4ccc(O)cc4C[C@@H](CCCCCCCCC[S+]([O-])CCCC(F)(F)C(F)(F)F)[C@H]3[C@@H]1CC[C@@H]2O (some centres not stated) [fulvestrant] | 3.06
51 | O=C(c1ccc(F)c(F)c1Nc1ccc(I)cc1F)N1CC(O)([C@@H]2CCCCN2)C1 [cobimetinib] | 2.48
52 | O=C(/C=C/c1cccnc1)NCCCCC1CCN(C(=O)c2ccccc2)CC1 [FK866] | 2.38
53 | CS(=O)(=O)c1ccc(C(=O)Nc2ccc(Cl)c(-c3ccccn3)c2)c(Cl)c1 [vismodegib] | 3.01
54 | C=CCn1c(=O)c2cnc(Nc3ccc(N4CCN(C)CC4)cc3)nc2n1-c1cccc(C(C)(C)O)n1 [adavosertib] | 2.33

same assay, conditions: 625 fM; days in culture: 191

Row | Compound | CTG-3D luminescence at 96 h
55 | COc1cc2c(Oc3ccc4[nH]c(C)cc4c3F)ncnc2cc1OCCCN1CCCC1 [cediranib] | 1.33
56 | CC(C)n1nc(-c2ccc3oc(N)nc3c2)c2c(N)ncnc21 [sapanisertib] | 1.72
57 | Cc1cc(Nc2ncnc3ccc(NC4=NC(C)(C)CO4)cc23)ccc1Oc1ccn2ncnc2c1 [tucatinib] | 1.67
58 | C[C@H](NC(=O)CCC(F)(F)F)C(=O)N[C@@H]1C(=O)N(CCO)c2ncccc2-c2ccccc21 [crenigacestat] | 1.32
59 | C[C@]12CC[C@@H]3c4ccc(O)cc4C[C@@H](CCCCCCCCC[S+]([O-])CCCC(F)(F)C(F)(F)F)[C@H]3[C@@H]1CC[C@@H]2O (some centres not stated) [fulvestrant] | 1.56
60 | O=C(c1ccc(F)c(F)c1Nc1ccc(I)cc1F)N1CC(O)([C@@H]2CCCCN2)C1 [cobimetinib] | 1.58
61 | O=C(/C=C/c1cccnc1)NCCCCC1CCN(C(=O)c2ccccc2)CC1 [FK866] | 1.64
62 | CS(=O)(=O)c1ccc(C(=O)Nc2ccc(Cl)c(-c3ccccn3)c2)c(Cl)c1 [vismodegib] | 1.54
63 | C=CCn1c(=O)c2cnc(Nc3ccc(N4CCN(C)CC4)cc3)nc2n1-c1cccc(C(C)(C)O)n1 [adavosertib] | 1.6

same assay, conditions: 625 fM; days in culture: 218

Row | Compound | CTG-3D luminescence at 96 h
64 | COc1cc2c(Oc3ccc4[nH]c(C)cc4c3F)ncnc2cc1OCCCN1CCCC1 [cediranib] | 1.68
65 | CC(C)n1nc(-c2ccc3oc(N)nc3c2)c2c(N)ncnc21 [sapanisertib] | 1.77
66 | Cc1cc(Nc2ncnc3ccc(NC4=NC(C)(C)CO4)cc23)ccc1Oc1ccn2ncnc2c1 [tucatinib] | 1.8
67 | C[C@H](NC(=O)CCC(F)(F)F)C(=O)N[C@@H]1C(=O)N(CCO)c2ncccc2-c2ccccc21 [crenigacestat] | 1.61
68 | C[C@]12CC[C@@H]3c4ccc(O)cc4C[C@@H](CCCCCCCCC[S+]([O-])CCCC(F)(F)C(F)(F)F)[C@H]3[C@@H]1CC[C@@H]2O (some centres not stated) [fulvestrant] | 2.24
69 | O=C(c1ccc(F)c(F)c1Nc1ccc(I)cc1F)N1CC(O)([C@@H]2CCCCN2)C1 [cobimetinib] | 1.64
70 | O=C(/C=C/c1cccnc1)NCCCCC1CCN(C(=O)c2ccccc2)CC1 [FK866] | 1.86
71 | CS(=O)(=O)c1ccc(C(=O)Nc2ccc(Cl)c(-c3ccccn3)c2)c(Cl)c1 [vismodegib] | 2
72 | C=CCn1c(=O)c2cnc(Nc3ccc(N4CCN(C)CC4)cc3)nc2n1-c1cccc(C(C)(C)O)n1 [adavosertib] | 1.82
